Experimental data from paper PMC4223075, “A Conserved Peptide Pattern from a Widespread Microbial Virulence Factor Triggers Pattern-Induced Immunity in Arabidopsis” (PLoS Pathogens, 2014).
No end group written: not given here.

System: Arabidopsis leaves
Experiment: Ethylene formation in Arabidopsis leaves / leaf discs
Format: cell-based, Arabidopsis thaliana
Settings: for EC50: synthetic peptides, Arabidopsis leaves, at least six different peptide concentrations, means ± SD of three replicates
Procedure: For MAPK activity assays, infiltrated plant material was harvested after 15 minutes and frozen in liquid nitrogen before used for protein extraction in 20 mM Tris-HCl pH 7.5, 150 mM NaCl, 1 mM EDTA, 1% Triton X-100, 0,1% SDS, 5 mM DTT, Complete Protease Inhibitor Mini, EDTA-free (Roche, Mannheim), PhosStop Phosphatase Inhibitor Cocktail (Roche, Mannheim). After pelleting the cell debris (10 min, 16000 g, 4°C), the supernatant (30 µg protein) was separated on a 10% SDS-PAGE and transferred to a nitrocellulose membrane and activated MAPK6, 3 and 4 were detected by western blotting using the anti phospho p44/42-MAPK antibody from rabbit (Cell Signaling Technology, The Netherlands). For ROS burst measurements two leaf pieces, floated on ddH2O overnight, were placed in one well of a 96-well plate, containing 100 µl of a 20 µM L-012 and 0.5 µg ml^−1 peroxidase solution. Background was measured shortly in a 96-well Luminometer, (Mithras LB 940, Berthold Technologies) before elicitation with a peptide solution or control treatment respectively. The detection of ethylene was performed as described. Leaf pieces were incubated in 20 mM MES buffer, pH 5.7. To visualize callose apposition, leaves were treated as described and harvested 24 hours after infiltration of a peptide solution. Quantification of callose was performed by counting selected pixels and calculated in % relative to the respective image section of the leaf surface. Pictures were analyzed using Photoshop CS6 Magic tool, hereby removing background and leaf-veins within a certain color range. (Use: white, Mode: normal, Opacity: 100%). Medium alkalinization in suspension-cultured Arabidopsis cells and detection of GUS enzyme activity in PR1::GUS transgenic Arabidopsis plants were performed as described previously, [43]. Surface-sterilized Arabidopsis Col-0 seeds were grown in ½ MS liquid medium supplemented with 1 µM of nlp20 (PpNLP) peptide or its orthologs respectively, and flg22 or H2O serving as controls. Root length of two weeks-old seedlings was determined upon transfer onto agar plates.

Row | Sequence | EC50 [nM] | elicitor activity (ethylene production in Arabidopsis leaf disks), in words
1 | MYSWYFPKDSPVTGLGHR [compound 11] | 1550 ± 328 | –
2 | AIMASWYFPKDSPVTGLGHRHDWE [compound 18] | 1500 ± 436 | –
3 | AIMYSWYFPKDSAVTGLGHRHDWE [compound 27] | 76 ± 45 | –
4 | AIMYSWYFPKASPVTGLGHRHDWE [compound 25] | 97 ± 36 | –
5 | SWYFPKDSPVTGLGHR [compound 14] | > 100000 | –
6 | AIMYSWYFAKDSPVTGLGHRHDWE [compound 23] | 307 ± 153 | –
7 | AIMYSWAFPKDSPVTGLGHRHDWE [compound 21] | 2630 ± 208 | –
8 | AIMYSWYFPKDSPVTGLGHRHDAE [compound 37] | 7.3 ± 1.8 | –
9 | AIAYSWYFPKDSPVTGLGHRHDWE [compound 17] | 42 ± 9 | –
10 | SWYFPKDSPVTGLGH [peptide 4] | > 100000 | –
11 | KDSPVTGLGHRHDWE [compound 5] | > 100000 | –
12 | IMYSWYFPKDSPVTGLGHR [compound 10] | 133 ± 10 | –
13 | AIMYSWYFPKDSPATGLGHRHDWE [compound 28] | 30 ± 11 | –
14 | AIMYSWYFPKDAPVTGLGHRHDWE [compound 26] | 57 ± 28 | –
15 | RVATYNGVYAIMYSWYFPKD [compound 7] | 84 ± 11 | –
16 | AIMYSWYAPKDSPVTGLGHRHDWE [compound 22] | 5.4 ± 3 | –

Row | Sequence | EC50 [nM] | elicitor activity (ethylene production in Arabidopsis leaf disks), in words
17 | WIMYSWYFPKDSPVTGLGHRHDWE [compound 15] | 55 ± 24 | –
18 | AIMYSWYFPKDSPVTALGHRHDWE [compound 30] | 23 ± 7.6 | –
19 | AIMYSWYFPKDSPVTGLAHRHDWE [compound 32] | 220 ± 78 | –
20 | AIMYSWYFPKDSPVAGLGHRHDWE [compound 29] | 25 ± 15 | –
21 | AIMYSWYFPKDSPVTGLGHAHDWE [compound 34] | 283 ± 40 | –
22 | AIMYAWYFPKDSPVTGLGHRHDWE [compound 19] | 18 ± 10 | –
23 | AIMYSWYFPKDSPVTGLGARHDWE [compound 33] | 48 ± 34 | –
24 | AIMYSWYFPKDSPVTGLGHRADWE [compound 35] | 7.7 ± 1.7 | –
25 | AIMYSWYFPKDSPVTGLGHRHAWE [compound 36] | 6.2 ± 5.6 | –
26 | YSWYFPKDSPVTGLGHR [peptide 12] | > 50000 | inactive
27 | AIMYSWYFPKDSPVTGAGHRHDWE [compound 31] | 24 ± 8 | –
28 | AIMYSWYFPKDSPVTGLGHRHDWA [compound 38] | 7.3 ± 1.7 | –
29 | AAMYSWYFPKDSPVTGLGHRHDWE [compound 16] | 1570 ± 252 | –
30 | YAIMYSWYFPKDSPV [compound 3] | 217 ± 65 | –
31 | AIMYSWYFPADSPVTGLGHRHDWE [compound 24] | 89 ± 31 | –
